# Assay results as given in PMC9516332 (Frontiers in Oncology, 2022).
# Like-named read-outs stand apart in the source and are kept apart here.
# Legend:
# 134 cancer cell lines = test: Cell viability assay (ATPlite, 72 hours), IC50 on cancer cell line panel
# AP-1060 (ETV6-NTRK3) = test: Cell viability assay; details: read-out: IC50 in cell proliferation assay
# [1] = biological target: panel of 255 wild-type kinases (Homo sapiens, UniProt Q9Y463); test: Kinase panel profiling at 1 µmol/L (MSA or IMAP), percentage inhibition; assay type: biochemical; details: kinase DYRK1B; 1 µmol/L single concentration; read-out: %-inhibition at 1 µmol/L, DYRK1B
# [2] = biological target: T1, panel of 255 wild-type kinases (Homo sapiens, UniProt Q96PF2); test: as above; assay type: biochemical; details: kinase TSSK2; 1 µmol/L single concentration; read-out: %-inhibition at 1 µmol/L, TSSK2
# T1 sequence (Q96PF2 1-358): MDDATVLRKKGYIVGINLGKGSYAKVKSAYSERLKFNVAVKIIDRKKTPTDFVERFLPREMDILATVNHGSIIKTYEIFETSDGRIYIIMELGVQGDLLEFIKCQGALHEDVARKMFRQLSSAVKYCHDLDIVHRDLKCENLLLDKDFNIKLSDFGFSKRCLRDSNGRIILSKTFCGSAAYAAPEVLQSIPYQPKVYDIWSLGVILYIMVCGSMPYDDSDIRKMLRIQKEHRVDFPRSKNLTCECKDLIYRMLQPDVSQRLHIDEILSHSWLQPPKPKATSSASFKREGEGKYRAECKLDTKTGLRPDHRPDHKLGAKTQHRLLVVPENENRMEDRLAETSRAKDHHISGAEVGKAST
# [3] = biological target: panel of 255 wild-type kinases (Homo sapiens, UniProt P08581); test: as above; assay type: biochemical; details: MET; 1 µmol/L single concentration
# [4] = biological target: panel of 255 wild-type kinases (Homo sapiens, UniProt P31749); test: as above; assay type: biochemical; details: AKT1 kinase assay; 1 µmol/L single concentration; read-out: %-inhibition AKT1
smiles,measurement,setting,value
Cn1cc(-c2cc3c(N4CCN(c5ncc([C@@](C)(N)c6ccc(F)cc6)cn5)CC4)ncnn3c2)cn1 [avapritinib],IC50,"134 cancer cell lines; Homo sapiens, MDA-MB-453, read-out: IC50 in cell proliferation assay",1.08 µM
same,IC50,"134 cancer cell lines; Homo sapiens, MDA-MB-468, read-out: IC50 in cell proliferation assay",12.6 µM
same,IC50,"134 cancer cell lines; Homo sapiens, MG-63, read-out: IC50 in cell proliferation assay",11.1 µM
same,IC50,"134 cancer cell lines; Homo sapiens, MIA PaCa-2, read-out: IC50 in cell proliferation assay",11 µM
same,IC50,"134 cancer cell lines; Homo sapiens, MKN-45, read-out: IC50 in cell proliferation assay",5.03 µM
same,IC50,"134 cancer cell lines; Homo sapiens, MOLM-13, read-out: IC50 in cell proliferation assay",0.465 µM
same,IC50,"134 cancer cell lines; Homo sapiens, MOLT-4, read-out: IC50 in cell proliferation assay",6.63 µM
same,IC50,"134 cancer cell lines; Homo sapiens, MV4-11, read-out: IC50 in cell proliferation assay",0.47 µM
same,IC50,"134 cancer cell lines; Homo sapiens, MeWo, read-out: IC50 in cell proliferation assay",> 31.6 µM
same,IC50,"134 cancer cell lines; Homo sapiens, NCCIT, read-out: IC50 in cell proliferation assay",3.52 µM
same,IC50,"134 cancer cell lines; Homo sapiens, NCI-H82, read-out: IC50 in cell proliferation assay",2.42 µM
same,IC50,"134 cancer cell lines; Homo sapiens, NCI-H460, read-out: IC50 in cell proliferation assay",16 µM
same,IC50,"134 cancer cell lines; Homo sapiens, NCI-H661, read-out: IC50 in cell proliferation assay",1.66 µM
same,IC50,"134 cancer cell lines; Homo sapiens, NCI-H716, read-out: IC50 in cell proliferation assay",6.81 µM
same,IC50,"134 cancer cell lines; Homo sapiens, NCI-H1650, read-out: IC50 in cell proliferation assay",19.6 µM
same,IC50,"134 cancer cell lines; Homo sapiens, NCI-H1975, read-out: IC50 in cell proliferation assay",11.1 µM
same,IC50,"134 cancer cell lines; Homo sapiens, NCI-H2228, read-out: IC50 in cell proliferation assay",9.99 µM
same,IC50,"134 cancer cell lines; Homo sapiens, OVCAR-3, read-out: IC50 in cell proliferation assay",22.1 µM
same,IC50,"134 cancer cell lines; Homo sapiens, PFSK-1, read-out: IC50 in cell proliferation assay",13.8 µM
same,IC50,"134 cancer cell lines; Homo sapiens, RL95-2, read-out: IC50 in cell proliferation assay",28.3 µM
same,IC50,"134 cancer cell lines; Homo sapiens, RPMI-7951, read-out: IC50 in cell proliferation assay",13.5 µM
same,IC50,"134 cancer cell lines; Homo sapiens, RS4-11, read-out: IC50 in cell proliferation assay",21 µM
same,IC50,"134 cancer cell lines; Homo sapiens, Rec1, read-out: IC50 in cell proliferation assay",28.9 µM
same,IC50,"134 cancer cell lines; Homo sapiens, SHP77, read-out: IC50 in cell proliferation assay",2.22 µM
same,IC50,"134 cancer cell lines; Homo sapiens, SK-BR-3, read-out: IC50 in cell proliferation assay",8.31 µM
same,IC50,"134 cancer cell lines; Homo sapiens, SK-N-AS, read-out: IC50 in cell proliferation assay",20.8 µM
same,IC50,"134 cancer cell lines; Homo sapiens, SK-N-FI, read-out: IC50 in cell proliferation assay",> 31.6 µM
same,IC50,"134 cancer cell lines; Homo sapiens, SK-N-MC, read-out: IC50 in cell proliferation assay",6.43 µM
same,IC50,"134 cancer cell lines; Homo sapiens, SK-N-SH, read-out: IC50 in cell proliferation assay",7.42 µM
same,IC50,"134 cancer cell lines; Homo sapiens, SNU-5, read-out: IC50 in cell proliferation assay",9.36 µM
same,IC50,"134 cancer cell lines; Homo sapiens, SNU-16, read-out: IC50 in cell proliferation assay",2.03 µM
same,IC50,"134 cancer cell lines; Homo sapiens, SNU-C2B, read-out: IC50 in cell proliferation assay",10.5 µM
same,IC50,"134 cancer cell lines; Homo sapiens, SU-DHL-1, read-out: IC50 in cell proliferation assay",2.31 µM
same,IC50,"134 cancer cell lines; Homo sapiens, SU-DHL-6, read-out: IC50 in cell proliferation assay",3.18 µM
same,IC50,"134 cancer cell lines; Homo sapiens, SUP-T1, read-out: IC50 in cell proliferation assay",9.11 µM
same,IC50,"134 cancer cell lines; Homo sapiens, SW48, read-out: IC50 in cell proliferation assay",5.58 µM
same,IC50,"134 cancer cell lines; Homo sapiens, SW480, read-out: IC50 in cell proliferation assay",25.4 µM
same,IC50,"134 cancer cell lines; Homo sapiens, SW626, read-out: IC50 in cell proliferation assay",20.2 µM
same,IC50,"134 cancer cell lines; Homo sapiens, SW780, read-out: IC50 in cell proliferation assay",19.3 µM
same,IC50,"134 cancer cell lines; Homo sapiens, SW837, read-out: IC50 in cell proliferation assay",> 31.6 µM
same,IC50,"134 cancer cell lines; Homo sapiens, SW872, read-out: IC50 in cell proliferation assay",6.31 µM
same,IC50,"134 cancer cell lines; Homo sapiens, SW900, read-out: IC50 in cell proliferation assay",21.9 µM
same,IC50,"134 cancer cell lines; Homo sapiens, SW948, read-out: IC50 in cell proliferation assay",14 µM
same,IC50,"134 cancer cell lines; Homo sapiens, SW982, read-out: IC50 in cell proliferation assay",10.8 µM
same,IC50,"134 cancer cell lines; Homo sapiens, SW-620, read-out: IC50 in cell proliferation assay",> 31.6 µM
same,IC50,"134 cancer cell lines; Homo sapiens, T98G, read-out: IC50 in cell proliferation assay",0.372 µM
same,IC50,"134 cancer cell lines; Homo sapiens, TCC-SUP, read-out: IC50 in cell proliferation assay",2.7 µM
same,IC50,"134 cancer cell lines; Homo sapiens, THP-1, read-out: IC50 in cell proliferation assay",5.42 µM
same,IC50,"134 cancer cell lines; Homo sapiens, U2OS, read-out: IC50 in cell proliferation assay",16.3 µM
same,IC50,"134 cancer cell lines; Homo sapiens, U-87 MG, read-out: IC50 in cell proliferation assay",22.9 µM
same,IC50,"134 cancer cell lines; Homo sapiens, U-118-MG, read-out: IC50 in cell proliferation assay",1.1 µM
same,IC50,"134 cancer cell lines; Homo sapiens, UMUC3, read-out: IC50 in cell proliferation assay",5.49 µM
same,IC50,"134 cancer cell lines; Hs766T, read-out: IC50 in cell proliferation assay",> 31.6 µM
same,IC50,"134 cancer cell lines; L-82, read-out: IC50 in cell proliferation assay",8.39 µM
same,IC50,"134 cancer cell lines; Rh30, read-out: IC50 in cell proliferation assay",14.9 µM
same,IC50,AP-1060 (ETV6-NTRK3),3.46 µM
same,inhibition at 1 µM,[1],47%
same,inhibition at 1 µM,[2],1.35%
same,inhibition at 1 µM,[3],16%
same,inhibition at 1 µM,[4],-9%
